These results are taken from patent US4169899A, “Penicillamine compounds” (Yoshitomi Pharmaceutical Industries, Ltd., priority 1977, dated 1979).

As usually defined, the IC20 is the concentration needed for an effect of 20%.

The structures appear in SMILES notation. Like-named read-outs stand apart in the source and are kept apart here. Bounds are passed on as bounds.

The test system of one test is Leukocyte migration. Description: Leukocyte migration in the rat (CMC pouch). Format: in vivo, rat (male Donryu). Particulars: compound administered into the CMC pouch; for Leukocyte Migration ED50, 5 hr: 5 hr after CMC injection; for Leukocyte Migration ED50, 7 hr: 7 hr after CMC injection. On the procedure:
(1) Leukocyte migration in the rat
The test was performed according to the method described by H. Ishikawa et al in "Yakugaku Zasshi (Journal of the Pharmaceutical Society of Japan)", vol.
Male Donryu rats weighing about 150 g were divided into groups of 4 to 5 animals each. Five ml of 2% suspension of carboxymethylcellulose (CMC) in physiological saline, which was treated by autoclaving at 120° C. for 15 minutes, was injected subcutaneously in the supra-scapular area. Five and 7 hours later, 0.1 ml of fluid in the CMC pouch was collected and mixed with 3 ml of 0.02% brilliant cresyl blue solution in phosphate buffer (0.002M, pH 7.0). The suspension was put in a Burker chamber and the emigrating leukocytes were counted under a microscope (magnification 400x). The percent inhibition was calculated as compared with the count in the control group. Compounds tested were administered into the CMC pouch immediately after the injection of the CMC suspension.

A further test deals with peritoneal macrophages. Description: Release (secretion) of lysosomal enzymes from macrophages during phagocytosis. Particulars: Rattus norvegicus, Peritoneal macrophage, 0.5 h, serum-treated zymosan, 37° C., 30 minutes. The class given is cell-based. On the procedure:
(§1) (2) Assay of release of lysosomal enzymes from polymorphonuclear (PMN) leukocytes or macrophages during phagocytosis
Preparation of rat peritoneal macrophages was carried out according to the method described by D. Gemsa et al in "Journal of Clinical Investigation",vol. 52, 812 (1973).
(§2) Lysosomal enzymes were released from PMN leukocytes exposed to homologous serum-treated zymosan particles (0.5-3 μ in diameter, Sigma) according to the method described by M. Nakanishi et al in "Yakugaku Zasshi (Journal of the Pharmaceutical Society of Japan)", vol. 95, 672 (1975).
(§3) The effects of test compounds on the enzyme release were studied by determining the release of lysosomal marker enzymes such as aryl sulfatase.
(§4) The test compounds were dissolved in ethanol. The test solution (10 μl) or solvent (control, 10 μl) was added to a 10-ml conical flask containing 2.0 ml of the PMN leukocyte or macrophage suspension. The mixture was kept at 25° C. for 10 minutes. Immediately after the addition of 50 μl of serum-treated zymosan particles (10 mg/ml) to the above mixture, 1.0-ml aliquots were removed to determine the initial activity of free enzymes in the supernatant. The residual mixtures were incubated at 37° C. for 30 minutes with shaking at an agitation cycle of 75/min, and centrifuged at 350 g for 10 minutes at 4° C. The supernatant thus obtained was used for the measurement of the marker enzymes released from PMN leukocytes or macrophages during phagocytosis. The total activity of these enzymes was assayed using the 27,000 g supernatant obtained by centrifuging the PMN leukocytes or macrophages incubated at 37° C. for 30 minutes in 0.2% (v/v) Triton X-100 - Hanks' solution.

Test [1] has as its system polymorphonuclear (PMN) leukocytes. Description: Release (secretion) of lysosomal enzymes from PMN leukocytes during phagocytosis. Format: cell-based. Particulars: Rattus norvegicus, 0.5 h, serum-treated zymosan, 37° C., 30 minutes. The protocol:
as §1
Preparation of rat PMN leukocytes was carried out according to the method described by M. Nakanishi et al in "Yakugaku Zasshi (Journal of the Pharmaceutical Society of Japan)", vol. 95, 1027 (1975).
as §2, §3, §4

In test [2] the test system is Adjuvant induced arthritis. Description: Adjuvant induced arthritis in the rat (prophylactic effect). Format: in vivo, rat (male Wistar). On the procedure:
(3) Adjuvant induced arthritis in the rat
The test was performed according to the method described by B. B. Newbould in "British Journal of Pharmacology", vol. 21, 127 (1963).
Male Wistar rats weighing 180 to 210 g were divided into groups of 8 animals each. The arthritic syndrome was induced by an intradermal injection into the right hind paw of 0.1 ml of a suspension of dead tubercle bacilli (6 mg/ml) in liquid paraffin. Swellings in the hind feet were measured with the fluid displacement method at 4, 10, 15, 18, 21 and 28 days after the adjuvant inoculation. Compounds tested were orally administered daily from the adjuvant inoculation day (day 1) to day 20.

[3] abbreviates: read-out: Secretion of Lysosomal Enzyme IC20, Macrophage, Macrophage.
Setting [4] is: Leukocyte, read-out: Secretion of Lysosomal Enzyme IC20, PMN leukocyte, PMN leukocyte.
[5] abbreviates: po, read-out: Prophylactic Effect on Adjuvant Arthritis MED (minimum effective dose).
Where [6] appears, read: Macrophage, read-out: Secretion of Lysosomal Enzyme IC20, Macrophage.
The mark [7] stands for this setting: PMN leukocyte, read-out: Secretion of Lysosomal Enzyme IC20, PMN leukocyte.
[8] abbreviates: oral, daily from day 1 to day 20, read-out: Prophylactic Effect on Adjuvant Arthritis MED (minimum effective dose).

As for `CC(=O)Oc1ccccc1C(=O)O` [AcetylsalicylicAcid, Acetylsalicylic Acid, reference compound], the “Leukocyte Migration ED50, 5 hr” value in the test with Leukocyte migration is given as 20 mg/rat. Further, the “Leukocyte Migration ED50, 7 hr” value in the test on Leukocyte migration was over 25 mg/rat. For the same compound, the results for the concentration for an effect of 20% (IC20) (in the test with peritoneal macrophages (setting [3]); in test [1] (setting [4])) were 100000 nM and 100 nM, respectively. The minimal effective dose in test [2] (setting [5]) was found to be 100 mg/kg.

Turning to `CC(C)(S)[C@@H](N)C(=O)O` [D-Penicillamine, D-penicillamine, reference compound], in the test on Leukocyte migration, the “Leukocyte Migration ED50, 5 hr” value was over 40 mg/rat and the “Leukocyte Migration ED50, 7 hr” value is over 40 mg/rat. Besides, in the test on peritoneal macrophages (setting [3]), the concentration for an effect of 20% (IC20) turned out to be 1000 nM. Also, the concentration for an effect of 20% (IC20) in test [1] (setting [4]) turned out to be 10000 nM. The minimal effective dose in test [2] (setting [5]) was over 200 mg/kg.

Take `CC1(C)SC(=S)N(Cc2ccccc2)C(=O)C1NC(=O)c1ccc(Cl)cc1` (stereo not shown) [Test Compound A, 3-benzyl-5-(p-chlorobenzamido)-6,6-dimethyl-2-thioxo-tetrahydro-2H-1,3-thiazin-4-one]: in the test on Leukocyte migration, the “Leukocyte Migration ED50, 5 hr” value was determined as 15 mg/rat and the “Leukocyte Migration ED50, 7 hr” value turned out to be 15 mg/rat. For the same compound, the IC20 with peritoneal macrophages (setting [6]) was over 10000 nM. Further, the IC20 in test [1] (setting [7]) came to 200 nM. The minimal effective dose in test [2] (setting [8]) was determined as 50 mg/kg.

`CN(C)CCN1C(=O)C(NC(=O)c2ccc(Cl)cc2)C(C)(C)SC1=S` (stereo not shown) [Test Compound B, 5-(p-Chlorobenzamido)-3-(2-dimethylaminoethyl)-6,6-dimethyl-2-thioxotetrahydro-2H-1,3-thiazin-4-one]: in the test with Leukocyte migration, the “Leukocyte Migration ED50, 5 hr” value was found to be 2 mg/rat and the “Leukocyte Migration ED50, 7 hr” value is 2 mg/rat. In addition, the IC20 with peritoneal macrophages (setting [6]) was found to be 200 nM. The concentration for an effect of 20% (IC20) in test [1] (setting [7]) is 500 nM. Also, the minimal effective dose in test [2] (setting [8]) was 25 mg/kg.

On to `CN(C)CCN1C(=O)C(NC(=O)c2ccc(Cl)cc2)C(C)(C)SC1=S.Cc1ccc(S(=O)(=O)O)cc1` (stereo not shown) [Test Compound C, 5-(p-Chlorobenzamido)-3-(2-dimethylaminoethyl)-6,6-dimethyl-2-thioxotetrahydro-2H-1,3-thiazin-4-one p-toluenesulfonate], for which the “Leukocyte Migration ED50, 5 hr” value with Leukocyte migration is 3.5 mg/rat. Also, the “Leukocyte Migration ED50, 7 hr” value with Leukocyte migration turned out to be 5 mg/rat. The IC20 in the test on peritoneal macrophages (setting [3]) was 100 nM; in test [1] (setting [4]), 1000 nM.

Regarding `CN(C)CCN1C(=O)C(NC(=O)c2ccc(NS(C)(=O)=O)cc2)C(C)(C)SC1=S.Cc1ccc(S(=O)(=O)O)cc1` (stereo not shown) [Test Compound D, 3-(2-dimethylaminoethyl)-5-(p-methanesulfonamidobenzamido)-6,6-dimethyl-2-thioxo-tetrahydro-2H-1,3-thiazin-4-one p-toluenesulfonate], in the test on Leukocyte migration, the “Leukocyte Migration ED50, 5 hr” value came out at 2 mg/rat and the “Leukocyte Migration ED50, 7 hr” value is 5 mg/rat. The IC20 in the test with peritoneal macrophages (setting [3]) was determined as 500 nM. Moreover, in test [1] (setting [4]), the concentration for an effect of 20% (IC20) came out at 300 nM. In addition, the minimal effective dose in test [2] (setting [5]) turned out to be 10 mg/kg.

Consider `CN(C)CCNC(=S)SC(C)(C)C(NC(=O)c1ccc(Cl)cc1)C(=O)O` (stereo not drawn) [Test Compound E, n-(p-Chlorobenzoyl)-S-(2-dimethylaminoethylthiocarbamoyl)-penicillamine], for which, in the test on Leukocyte migration, the “Leukocyte Migration ED50, 5 hr” value is recorded as 2.7 mg/rat and the “Leukocyte Migration ED50, 7 hr” value is 3.6 mg/rat. Also, in the test on peritoneal macrophages (setting [6]), the IC20 turned out to be 100 nM. In addition, in test [1] (setting [7]), the IC20 amounted to 1000 nM. Further, the minimal effective dose in test [2] (setting [8]) amounted to 10 mg/kg.
